According to the Deep4Chem optical property database:

Experiment: solvent given as SMILES
[1] = in O=P(c1ccccc1)(c1ccccc1)c1ccccc1Oc1ccccc1P(=O)(c1ccccc1)c1ccccc1

SMILES: CCN(CC)c1ccc(-c2nc(Oc3ccc(-c4nc5cc([N+](=O)[O-])ccc5[nH]4)cc3)nc(Oc3ccc(-c4nc5cc([N+](=O)[O-])ccc5[nH]4)cc3)n2)cc1
- emission maximum (in CN(C)C=O): 429 nm

SMILES: B1C=Cc2ccc3ccccc3c2N1
- emission maximum (in C1CCCCC1): 371 nm

SMILES: CC1(C)C(/C=C/C2=C(Oc3ccc(CCN=C=S)cc3I)C(=C/C=C3/N(CCCS(=O)(=O)[O-])c4ccccc4C3(C)C)/CCC2)=[N+](CCCS(=O)(=O)[O-])c2ccccc21
- emission maximum (in CO): 796 nm

SMILES: N#Cc1cc(N2c3ccccc3Sc3ccccc32)cc(N2c3ccccc3Sc3ccccc32)c1
- emission maximum (in Cc1ccccc1): 536 nm

SMILES: C1=C(c2ccccc2)[Si](c2ccccc2)(c2ccccc2)c2ccccc21
- emission maximum (in ClCCl): 400 nm

SMILES: C(=C\c1cc2ccccc2c2ccccc12)/c1c2ccccc2cc2ccccc12
- emission maximum (in C1CCOC1): 510 nm

SMILES: CCCCCCCCCCCCN1C(=O)c2c(c3ccc4cc(-c5ccc(C=O)cc5)c(OC)cc4c3c3c2ccc2cc(-c4ccc(C=O)cc4)c(OC)cc23)C1=O
- emission maximum (in ClCCl): 523 nm

SMILES: CCCCn1c2ccc(C#Cc3cccs3)cc2c2c1c1c3ccc(C#Cc4cccs4)cc3n(CCCC)c1c1c3ccc(C#Cc4cccs4)cc3n(CCCC)c21
- emission maximum (in C1CCOC1): 430 nm

SMILES: c1cc2ccc3cc4[nH]ccc4c4ccc(c1)c2c34
- emission maximum (in CCOC(C)=O): 398 nm

SMILES: CN(C)c1ccc(-c2nc(-c3ccccc3)n3ccccc23)cc1
- emission maximum (in ClC(Cl)Cl): 524 nm

SMILES: c1ccc(-c2nc(-c3ccccc3)nc(-c3ccc(N4c5ccccc5C(c5ccccc5)(c5ccccc5)c5ccccc54)cc3)n2)cc1
- emission maximum [1]: 472.98 nm

SMILES: CN(C)c1ccc(C2=[N+]3C(=Nc4c(-c5ccccc5)cc(-c5ccc(N(C)C)cc5)n4[B-]3(F)F)C(c3ccccc3)=C2)cc1
- emission maximum (in ClC(Cl)Cl): 823 nm

SMILES: CC[n+]1c(-c2ccccc2)c2cc(N)ccc2c2ccc(NC(N)=[NH2+])cc21
- emission maximum (in O): 590 nm

SMILES: CC(C)(C)c1ccc2c(c1)c1cc(C(C)(C)C)ccc1n2-c1ccc(S(=O)(=O)c2ccc(-n3c4ccc(C(C)(C)C)cc4c4cc(C(C)(C)C)ccc43)cc2)cc1
- emission maximum (in Cc1ccccc1): 404 nm
- emission maximum [1]: 423 nm

SMILES: c1ccc(N(c2ccccc2)c2ccc(-n3ccc4cc(-c5ccc6c(c5)C(c5ccccc5)(c5ccccc5)c5ccccc5-6)ccc43)cc2)cc1
- emission maximum (in ClCCl): 380 nm

SMILES: CC(C)(C)c1ccc2c(c1)c1cc(C(C)(C)C)ccc1n2-c1ccc(C#Cc2cccc(C#Cc3ccc(-n4c5ccc(C(C)(C)C)cc5c5cc(C(C)(C)C)ccc54)cc3)c2)cc1
- emission maximum (in CC#N): 435 nm
- emission maximum (in CCCCC): 359 nm
- emission maximum (in CO): 426 nm
- emission maximum (in Cc1ccccc1): 379 nm
- emission maximum (in ClC(Cl)Cl): 400 nm
- emission maximum (in ClCCl): 416 nm

SMILES: Cc1cccc(C2=CC3=C(c4c(C)cc(C)cc4C)c4cc(-c5cccc(C)c5)c(-c5cccc(C)c5)n4[B-](F)(F)[N+]3=C2c2cccc(C)c2)c1
- emission maximum (in C1CCCCC1): 625 nm
- emission maximum (in C1CCOC1): 626 nm
- emission maximum (in CC#N): 620 nm
- emission maximum (in Cc1ccccc1): 628 nm
- emission maximum (in ClCCl): 627 nm

SMILES: Cc1ccc(/C=C/c2ccccc2-[n+]2noc([O-])c2C)cc1
- emission maximum (in C1CCCCC1): 348 nm
- emission maximum (in CC#N): 450 nm

SMILES: CC(C)(C)C1CCC(=CS/C=C/c2ccc(/C=C/SC=C3CCC(C(C)(C)C)CC3)cc2)CC1 (configuration not stated)
- emission maximum (in ClCCl): 422 nm

SMILES: CC1=[N+]2C(=C(NC(C)c3ccccc3)c3ccc(C)n3[B-]2(F)F)C=C1c1cc2n(c1)[B-](F)(F)[N+]1=CC=CC1=C2c1c(C)cc(C)cc1C (configuration not stated)
- emission maximum (in C1CCCCC1): 640 nm
- emission maximum (in CCOC(C)=O): 700 nm

SMILES: Cc1cc(C)c([B-]2(c3c(C)cc(C)cc3C)[O+]=P(c3ccccc3)(c3ccccc3)c3ccsc3-c3sccc32)c(C)c1
- emission maximum (in C1CCOC1): 429 nm

SMILES: O=C(O)CCCc1cc2ccc3cccc4ccc(c1)c2c34
- emission maximum (in CO): 374 nm

SMILES: CCOC(=O)COc1ccccc1C(c1c(C)[nH]c2ccccc12)c1c(C)[nH]c2ccccc12
- emission maximum (in C1CCCCC1): 328 nm
- emission maximum (in CC#N): 348 nm
- emission maximum (in CO): 349 nm
- emission maximum (in O): 350 nm

SMILES: CCCCc1ccc(-n2c3c4cc(F)ccc4nc(-c4ccc(OC)cc4)c3c3c2c2c(-c4ccc(OC)cc4)nc4ccc(F)cc4c2n3-c2ccc(CCCC)cc2)cc1
- emission maximum (in ClC(Cl)Cl): 527 nm

SMILES: O=C1c2ccccc2C2=Cc3ccccc3B(O)N12
- emission maximum (in CC#N): 432 nm
- emission maximum (in CO): 430 nm
- emission maximum (in CS(C)=O): 438 nm
- emission maximum (in ClC(Cl)Cl): 437 nm

SMILES: c1ccc2cc3cc(-c4cc(-c5nccs5)nc(-c5nccs5)c4)ccc3cc2c1
- emission maximum (in CC#N): 474 nm
- emission maximum (in CCCCCC): 376 nm
- emission maximum (in CO): 377 nm
- emission maximum (in ClC(Cl)Cl): 452 nm

SMILES: COc1ccc2cc(-c3ccccc3CC#N)c(=O)oc2c1
- emission maximum (in ClC(Cl)Cl): 409 nm

SMILES: CN(C)c1ccc(/C=C/c2nc3c(ccc4ccccc43)s2)cc1
- emission maximum (in C1CCCCC1): 468 nm
- emission maximum (in CC#N): 524 nm

SMILES: CCCCNc1ccc(NCCCC)c2c1C(=O)c1ccccc1C2=O
- emission maximum (in C1CCCCC1): 665 nm
- emission maximum (in C1COCCO1): 672 nm
- emission maximum (in CC(C)=O): 671 nm
- emission maximum (in CCCCCCCCCCO): 668 nm
- emission maximum (in CCCCCCCO): 661 nm
- emission maximum (in CCCCCCO): 670 nm
- emission maximum (in CCCCO): 671 nm
- emission maximum (in CCO): 674 nm
- emission maximum (in CN(C)C=O): 664 nm
- emission maximum (in CO): 666 nm
- emission maximum (in CS(C)=O): 678 nm
- emission maximum (in ClC(Cl)(Cl)Cl): 675 nm
- emission maximum (in c1ccccc1): 667 nm

SMILES: O=C1c2ccccc2NC(c2ccccc2)N1Cc1ccccc1 (configuration not stated)
- emission maximum (in CC#N): 407 nm
- emission maximum (in CCCCCCCCCCCCCCCC): 383 nm
- emission maximum (in CO): 442 nm
- emission maximum (in ClC(Cl)Cl): 398 nm
- emission maximum (in c1ccccc1): 393 nm

SMILES: CN(C)c1ccc2nc(-c3ccccc3)c(=O)oc2c1
- emission maximum (in c1ccccc1): 500 nm

SMILES: CCOC(=O)CCCCCn1c2ccccc2c(=O)c2cc3c(cc21)c(=O)c1ccccc1n3CC
- emission maximum (in CO): 550 nm

SMILES: CCCCC1(CCCC)c2cc(C#Cc3ccc(C=C4c5ccccc5-c5ccccc54)cc3)ccc2-c2ccc(C#Cc3ccc(C=C4c5ccccc5-c5ccccc54)cc3)cc21
- emission maximum (in C1CCOC1): 406 nm

SMILES: CCCC1=Cc2nc1ccc1[nH]c(cc1CCOC)c1nc(ccc3[nH]c2cc3CCC)C(CCOC)=C1
- emission maximum (in Cc1ccccc1): 642 nm

SMILES: c1ccc(-c2ccc3c(c2)c2cc(-c4ccccc4)ccc2n3-c2ccc3c(c2)c2cc(-n4c5ccc(-c6ccccc6)cc5c5cc(-c6ccccc6)ccc54)ccc2n3-c2ccc(-c3nc(-c4ccccc4)nc(-c4ccccc4)n3)cc2)cc1
- emission maximum (in Cc1ccccc1): 457 nm
- emission maximum [1]: 480 nm

SMILES: c1ccc(C2(c3ccccc3)c3ccc4ccc5ccccc5c4c3-c3c2ccc2ccc4ccccc4c32)cc1
- emission maximum (in ClCCl): 421 nm

SMILES: CC(C)c1cccc(C(C)C)c1N1C(=O)c2ccc3c(-c4ccccc4)c4c5ccc6c7c(ccc(c(-c8ccccc8)c4c4ccc(c2c34)C1=O)c75)C(=O)N(c1c(C(C)C)cccc1C(C)C)C6=O
- emission maximum (in ClCCl): 702 nm

SMILES: CCCCCCn1c(=O)c2c3oc4ccccc4oc3c3c(=O)n(CCCCCC)c(=O)c3c2c1=O
- emission maximum (in ClCCl): 487 nm

SMILES: FC(F)(F)c1c(-n2c3ccccc3c3ccccc32)c(-n2c3ccccc3c3ccccc32)c(-n2c3ccccc3c3ccccc32)c(-n2c3ccccc3c3ccccc32)c1-n1c2ccccc2c2ccccc21
- emission maximum (in ClCCl): 481 nm

SMILES: CN(C)c1ccc(-c2nc3c(c4c2-c2ccccc2CC4)-c2ccccc2CC3)cc1
- emission maximum (in C1CCOC1): 452 nm
- emission maximum (in CC#N): 463 nm
- emission maximum (in CCCCCC): 422 nm
- emission maximum (in CCOC(C)=O): 449 nm
- emission maximum (in CO): 460 nm
- emission maximum (in CS(C)=O): 470 nm
- emission maximum (in Cc1ccccc1): 436 nm
- emission maximum (in ClCCl): 449 nm

SMILES: CCCCCCOc1ccc(-c2ccc(/C=C/c3cc(/C=C/c4ccc(-c5ccc(OCCCCCC)cc5)cc4)ncn3)cc2)cc1
- emission maximum (in ClCCl): 483 nm
